This is an account of results in patent publication US20030166723A1, “Ige production inhibitors” (priority 2000, published 2003).

Structures are written as SMILES. Read-outs that look alike come from different tables or passages of the source.

One assay deals with NC/Nga mice. Briefly: Disease score of NC/Nga mice (AD model), oral administration. The assay is classed as in vivo, mouse. The text has this:
As a model animal, NC/Nga mouse was used. The NC/Nga mouse is an inbred mouse established in 1957, which is originated from “[…]” mouse, a pet mouse. Long since, it has been known that this mouse is sensitive to X-rays and to ovalbumin-caused anaphylactic shocks. […] Such AD-like phenotype occurs in the ordinary environment but not in a SPF (specific pathogen-free) environment where neither microorganism nor parasite exists, so that the onset of the disease can be controlled. In this view, the mouse was used as a disease model of atopic dermatitis in carrying out the present invention As the model animal, 5-week-old male NC/Nga mice bred in SPF environment, presenting neither dermatitis-like feature nor hyperIgE syndrome were used. To these mice, GLA ethyl ester (degree of purification of 95.98%: manufactured by Idemitsu Material Co., Ltd.) was administered by a stomach tube method in a dosage of 50 mg/individual once every other day starting from 5-week-old to obtain a GLA-administered group composed of 6 animals. On the other hand, as a control, PBS (phosphate buffered saline) instead of GLA ethyl ester was likewise administered in a dosage of 50 μg/individual to obtain a control group composed of 6 animals. In each week from the onset of administration (5 weeks old) up to 19 weeks old, the disease scores of the above-mentioned mice were converted into points according to the method of Matsuda et al. (Int. Immunol., 9, 461-466, 1997). A concrete method is described below. The following 5 items from A to E were scored by a three point full mark scoring system of 0 (none), 1 (slightly aggravated), 2 (moderately aggravated), and 3 (considerably aggravated). In total, 15 points make a full score. […] B (erythema, bleeding); Bleeding from ears and face and erythema on the back of ears were scored. C (edema): Mainly, degree of swelling of ears was scored. D (abrasions, erosion): Abrasions around the face, on the back of ears, and at around the base of arm were scored. E (dryness): Degree of dry skin from the back to the face was scored. As the model animal, 5-week-old male NC/Nga mice bred in SPF environment, presenting neither dermatitis-like feature nor hyperIgE syndrome were used. The animals were divided into each group composed of 10 animals. For the GLA-administered group, GLA ethyl ester (degree of purification of 95.98%: manufactured by Idemitsu Material Co., Ltd.) was administered by a stomach tube method in a dosage of 0.1 mg/individual once every other day. Administration of GLA was performed by using, olive oil containing little essential fatty acid which was added to 0.1 mg of GLA ethyl ester to make 50 μl. For the control group, 50 μl of olive oil alone was likewise administered. The disease score of mice in these groups were calculated every week in the same manner as in Example 1 and total IgE amount in plasma was measured once every other week.

The subject of the next assay is IgE. Particulars: for total IgE amount in plasma compared with control group: stomach tube. On the procedure: As the model animal, 5-week-old male NC/Nga mice bred in SPF environment, presenting neither dermatitis-like feature nor hyperIgE syndrome were used. To these mice, GLA ethyl ester (degree of purification of 95.98%: manufactured by Idemitsu Material Co., Ltd.) was administered by a stomach tube method in a dosage of 50 mg/individual once every other day starting from 5-week-old to obtain a GLA-administered group composed of 6 animals. On the other hand, as a control, PBS (phosphate buffered saline) instead of GLA ethyl ester was likewise administered in a dosage of 50 μg/individual to obtain a control group composed of 6 animals.
In addition, blood was collected from the above-mentioned mice at the time of starting the administration (5 weeks old), and at 7, 9, and 11 weeks old and was centrifuged at 1,500 rpm for 10 minutes to obtain plasma. Then, total IgE amount in the plasma was measured by a sandwich ELISA method. A concrete method thereof is described below.
Rat anti-murine IgE monoclonal antibody (manufactured by PharMingen Co.) diluted to […] with coating buffer (0.1 M NaHCO3, 0.5 M NaCl, pH 8.5) was added to each well of a plate (NUNC-IMMUNOPLATE, manufactured by NUNC Inc., A/S) in an amount of 50 μl, and left to stand at 4° C. overnight or at 37° C. for 3 hours, followed by washing the wells with PBS/Tween (PBS, 0.05% Tween-20, pH 7.5) 3 times.
To each well, 200 μl of blocking buffer (PBS containing 2% skimmed milk) was added and incubated at 37° C. for 3 hours, followed by washing the wells with PBS/Tween 3 times.
Then, the above-mentioned murine plasma was diluted 100 folds with dilution buffer (PBS, 2% skimmed milk, 0.25% SDS) to prepare a sample for measurement. Furthermore, murine IgE standard (manufactured by PharmMingen Co.) was diluted with dilution buffer to prepare a standard for measurement.
The samples for measurement and standard were added to each well in amounts of 50 μl/well and incubated at 37° C. for 3 hours, followed by washing the wells with PBS/Tween 3 times.
Biotinylated rat anti-murine IgE antibody (manufactured by PharmMingen Co.) diluted to 2 μg/ml with dilution buffer was added to each well in an amount of 50 μl and incubated at 37° C. for about 3 hours, followed by washing the wells with PBS/Tween 6 times.
Furthermore, alkaline phosphatase-labeled Streptoavidin (manufactured by BioSource, Inc.) diluted to 1.000 folds with dilution buffer was added to the wells in an amount of 50 μl/well and incubated at 37° C. for 1 hour, followed by washing the wells with PBS/Tween 6 times.
As the model animal, 5-week-old male NC/Nga mice bred in SPF environment, presenting neither dermatitis-like feature nor hyperIgE syndrome were used. The animals were divided into each group composed of 10 animals. For the GLA-administered group, GLA ethyl ester (degree of purification of 95.98%: manufactured by Idemitsu Material Co., Ltd.) was administered by a stomach tube method in a dosage of 0.1 mg/individual once every other day. Administration of GLA was performed by using, olive oil containing little essential fatty acid which was added to 0.1 mg of GLA ethyl ester to make 50 μl. For the control group, 50 μl of olive oil alone was likewise administered.
The disease score of mice in these groups were calculated every week in the same manner as in Example 1 and total IgE amount in plasma was measured once every other week.

The test system of assay [1] is spleen cells of NC/Nga mice. Particulars: BrdU 60-72 hours. On the procedure: Here, the addition of GLA was performed by diluting it with ethanol to appropriate concentrations and making the final concentration of ethanol to be 0.1%.
Assay [2] has as its system spleen cells of NC/Nga mice. An excerpt:
In this example, the effect of GLA to inhibit IgE production in vitro was studied by an in vitro class switch induction system using spleen cells of the mice. First, spleen cells were collected from NC/Nga mice by the following method. An 8-week-old NC/Nga mouse bred in SPF environment, presenting neither dermatitis-like feature nor hyperIgE syndrome was sacrificed by dislocation fracture of the cervical vertebrae and the spleen was extracted in a sterile condition. The extracted spleen was placed in RPMI-1640 medium (about 3 ml) in a dish, and separated into individual cells with a sterilized pincette. The separated cells were placed in a 15-ml Falcon tube and the membrane of the spleen was removed. Then, the cells suspended in the medium were centrifuged at 1,500 rpm for 5 minutes to recover only the cells. Subsequently, to remove erythrocytes, the recovered cells were suspended in 10 ml of sterilized lysis buffer at 4° C. to cause hemolysis, followed by washing twice with sterilized PBS produced by Milli-Q at 4° C. to collect spleen cells. A portion of the obtained spleen cells was stained with Trypan Blue (Trypan Blue Stain 0.4%: manufactured by LIFE TECHNOLOGIES, INC.) and counted on a hemacytometer. Then, measurement of IgE amount in the culture supernatant in a class switch induction system was performed by the following procedure. Based on the number of cells counted by the above-mentioned method, the cells were inoculated on a plate (96-well cell culture microtest plate, with flat bottom, low evaporation type, made of polystyrene with a lid: manufactured by FALCON CO.) to a concentration of 2×10^5 cells/ml per well. The medium used here contained cytokine IL-4 (100 U/ml) and LPS (10 μg/ml) as stimulants for the IgE class switch induction. To observe the influences of GLA before, during, or after the stimulation for class switch, GLA was added to the media in various concentrations (0, 10, 20, 40, 60, 80, 120, 160 μg/ml) after 0 hour (at the start of culture), 48 hours, or 72 hours from the start. Here, the addition of GLA was performed by diluting it with ethanol to appropriate concentrations and making the final concentration of ethanol to be 0.1%. All the cultures were performed at 37° C. in a 5%-CO2 incubator and the cultured supernatants were recovered after 7 days (after 168 hours). The IgE amounts thereof were measured by a sandwich ELISA method.

Where [3] appears, read: oral administration of olive oil containing 0.1 mg GLA ethyl ester.

Consider `CCCCC/C=C\C/C=C\C/C=C\CCCCC(=O)OCC` [GLA ethyl ester], for which the “disease score (summary of Example 2)” value in the assay with NC/Nga mice (setting [3]) is listed as “significantly low”. In addition, the “IgE amount (summary of Example 2)” value with IgE (setting [3]) is given as “significantly low”.
`CCCCC/C=C\C/C=C\C/C=C\CCCCC(=O)O` [GLA, γ-linolenic acid]: the “average disease score compared with control group” value in the assay with NC/Nga mice (GLA ethyl ester 0.1 mg/individual in olive oil, stomach tube, once every other day, vs olive oil control, week 9 or thereafter) is reported as “low average scores”. Moreover, the “disease score compared with control group” value with NC/Nga mice (GLA ethyl ester 0.1 mg/individual in olive oil, stomach tube, once every other day, vs olive oil control, weeks 15 to 17) is given as “significantly low scores”; with NC/Nga mice (GLA ethyl ester 50 mg/individual, stomach tube, once every other day from 5 weeks old, vs PBS control, week 11 and weeks 13 to 19), “significant inhibition of the disease score”. Also, in the assay on NC/Nga mice (GLA ethyl ester 50 mg/individual, stomach tube, once every other day, at week 11 or thereafter), the “increase of disease score with time” value was “no significant increase was observed”. The “inhibition of IgE production in vivo” value in the assay on IgE (2 month-long oral administration to AD-suffering NC/Nga mice with hyperIgE syndrome) is on record as “no inhibition of IgE production”. For the same compound, the “increase of total IgE amount in plasma with time” value in the assay on IgE (GLA ethyl ester 0.1 mg/individual in olive oil, once every other day, at week 13 and thereafter) was “no significant increase was observed”. For the same compound, the “total IgE amount in plasma compared with control group” value in the assay on IgE (GLA ethyl ester 0.1 mg/individual in olive oil, once every other day, vs olive oil control, week 13 to week 19) is on record as “significantly low values”; in the assay with IgE (GLA ethyl ester 50 mg/individual, once every other day, vs PBS control, each measurement period (weeks 5, 7, 9, 11)), “low in total IgE amount”; in the assay with IgE (GLA ethyl ester 50 mg/individual, once every other day, vs PBS control, week 11), “significantly low”. Moreover, in assay [1] (GLA 0-160 μg/ml added after 0 hour), the “cell proliferation potency with increase of added GLA concentration” value is “a decrease in the cell proliferation potency was observed”. The “cell proliferation compared to no-GLA-added lot” value in assay [1] (GLA 40 μg/ml added after 0 hour) is “did not substantially decrease”. The “amount of totally produced IgE compared to no-GLA-added lot” value in assay [2] (GLA 40 μg/ml added after 0 hour of culture) is recorded as “about one tenth”. Further, the “degree of decrease in total IgE amount produced versus decrease in cell proliferation” value in assay [2] (GLA 20 to 60 μμg/ml added after 0 hour) was “significantly greater”. For the same compound, in assay [2] (GLA added after 0 hour of culture, 0-160 μg/ml, supernatant after 7 days), the “inhibition of IgE production, dependence on concentration” value is listed as “inhibits IgE production dose-dependently”. Besides, the “inhibition of IgE production (IgE amount in culture supernatant)” value in assay [2] (GLA added after 0 hour of culture, 120 μg/ml, supernatant after 7 days) is reported as “complete inhibition of the IgE production”; in assay [2] (GLA added after 48 hours of culture, above 120 μg/ml), “not complete but significant inhibition”; in assay [2] (GLA added after 48 hours of culture, up to 80 μg/ml) it was “no IgE inhibition was observed”; in assay [2] (GLA added after 72 hours of culture, at the added concentrations measured (10-160 μg/ml)), “no significant inhibition of IgE production was observed”.
